Laboratory results as given in patent US20230080054A1 (ILDONG PHARMACEUTICAL CO., LTD., priority 2021, published 2023).

What was measured:
human ANO6 = molecular target: T1, human ANO6 (Homo sapiens, UniProt Q4KMQ2); assay: LACT C2 assay (phosphatidylserine scramblase function assay); assay type: cell-based; settings: FRT cells expressing human ANO6, 10 μM ionomycin; for inhibition at 0.1 µM: test compound 100 nM, read-out: Inhibition Level 100 nM; for inhibition at 1 µM: test compound 1 μM, read-out: Inhibition Level 1 μM
T1 construct: expressed in transfected cells
T1 sequence (Q4KMQ2 1-931 isoform Q4KMQ2-2): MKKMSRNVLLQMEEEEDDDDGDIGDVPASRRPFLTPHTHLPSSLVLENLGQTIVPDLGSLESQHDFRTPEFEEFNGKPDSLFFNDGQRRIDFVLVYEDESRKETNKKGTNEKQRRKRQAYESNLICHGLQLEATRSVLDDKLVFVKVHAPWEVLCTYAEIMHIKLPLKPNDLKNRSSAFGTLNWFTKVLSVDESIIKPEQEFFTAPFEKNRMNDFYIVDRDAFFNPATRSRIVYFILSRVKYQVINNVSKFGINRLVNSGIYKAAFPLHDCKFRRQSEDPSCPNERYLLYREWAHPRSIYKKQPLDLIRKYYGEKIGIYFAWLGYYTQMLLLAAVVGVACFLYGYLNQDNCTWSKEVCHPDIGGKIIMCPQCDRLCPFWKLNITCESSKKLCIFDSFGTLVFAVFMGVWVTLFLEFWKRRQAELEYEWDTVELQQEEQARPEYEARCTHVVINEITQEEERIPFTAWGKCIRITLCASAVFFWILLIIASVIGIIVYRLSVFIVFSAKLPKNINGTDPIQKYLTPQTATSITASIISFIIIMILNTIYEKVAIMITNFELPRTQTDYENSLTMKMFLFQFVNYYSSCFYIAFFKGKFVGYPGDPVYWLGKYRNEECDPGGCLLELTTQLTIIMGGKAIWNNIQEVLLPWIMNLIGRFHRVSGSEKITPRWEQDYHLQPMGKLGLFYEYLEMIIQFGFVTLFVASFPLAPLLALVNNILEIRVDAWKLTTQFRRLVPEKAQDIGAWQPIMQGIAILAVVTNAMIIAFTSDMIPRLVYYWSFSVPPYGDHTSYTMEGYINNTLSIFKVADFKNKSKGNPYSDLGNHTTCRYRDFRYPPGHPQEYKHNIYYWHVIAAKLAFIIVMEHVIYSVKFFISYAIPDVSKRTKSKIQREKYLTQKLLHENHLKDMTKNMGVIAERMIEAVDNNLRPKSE
Outline: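 Inhibition was normalised between ionomycin-only (0%) and untreated (100%) wells, with triplicates averaged. Readout was background-corrected Lact-C2-GFP (500 nM) fluorescence from imaged cells. The cells were FRT cells stably expressing human ANO6, given compound at 1% DMSO for 10 min before a 10 min 10 μM ionomycin challenge.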

[1] = system: platelet-rich plasma (PRP); assay: Recalcification time of rat platelet-rich plasma; settings: 30 μM, vs 2% DMSO control
Protocol: Example 5: Recalcification Time
(§1) 1. Materials and Instruments
Isoflurane (Hana Pharm, cat. #9008), Isotonic Sodium Chloride Injection (Daihan Pharm, cat. #331), Citrate-dextrose solution (Sigma-Aldrich, cat. #C3821), Calcium chloride solution (Sigma-Aldrich, cat. #21115), 22G Syringe 10 mL (Koreavaccine), Dimethyl sulfoxide (Sigma-Aldrich, cat. #D5879), Apixaban (AK scientific, cat. #X1060), 96 Well Cell Culture Plates (SPL Life Sciences, cat. #30096), Synergy H4 Hybrid Microplate Reader (BioTek), Combi R515 Multi-purpose Centrifuge (Hanil Scientific), BS-06 Shaking & Heating Baths (JEIO TECH), and PST-60HL-4 Plate Shaker-Thermostat (Bio-San)
Seven-week-old male SD Rat (ORIENT BIO.) were maintained under controlled conditions of temperature (22±2° C.) and 12-h light/12-h dark cycle. Rats were housed in the pathogen-free facility of the Laboratory Animal Research Center in Ildong Pharmaceutical Co. Ltd. All procedures on animals were conducted in accordance with the relevant national regulatory guidelines and individual experiments approved by the Ildong Pharmaceutical Co. Ltd., Institutional Animal Care and Use Committee (IACUC) (approval No.: A2106-3, 2108-4).
The ability of test compounds to interfere with plasma coagulation, in the presence of platelets, was analyzing by measuring the recalcification time of rat plasma. The blood of animals was collected into 15 mL tubes containing Citrate-dextrose solution (9:1 v/v) before performing the assays. For recalcification time, platelet-rich plasma (PRP) samples were obtained by centrifugation at 360×g for 10 minutes. And the PRP were preincubated for 5 minutes (37° C.). In a 96 well microplate, test compounds (2 μL) were treated in 98 μL of platelet rich plasma. After mixing with a pipette, it was incubated at 37° C. for 15 minutes. The reaction was started by addition of 200 μL of pre-warmed CaCl2) (16 mM). Immediately, put the microplate in a microplate reader and the signals were measured by the following steps.
(1) 405 nm wavelength absorbance signals were recorded in every 10 seconds at 37° C.
(2) Basal absorbance signals were recorded for 0 second.
The signal variance of each of the test compounds was obtained by the following step.
(1) Background signals (t=O) were subtracted from recording values, and the resulting values were converted to change values. The values at 0 second were set to be zero.
The retardation time of test compound were calculated by the following formula:
Retardation time (sec)=[log EC50 (test sample)−log EC50 (DMSO control)]
As described above, a DMSO control group is a group to which 2% DMSO was treated.
The assay result is shown in Table 5, where compounds (30 μM) having less than 20 seconds of retardation time are marked by ‘C’; the compounds (30 μM) having retardation time of 20 seconds or more to less than 50 seconds are marked by ‘B’; and the compounds (30 μM) having retardation time of 50 seconds or more are marked by ‘A’.

citrated human blood = assay: NATEM (ROTEM thromboelastometry, blood clot formation); settings: 100 μM, 2% v/v DMSO, 15 min preincubation
Protocol: as §1
Star-TEM reagent (TEM International GmbH, cat. #000503-01), Dimethyl sulfoxide (Sigma-Aldrich, cat. #D2438), Cleancle normal saline (JW Pharm), and ROTEM® delta system (TEM International GmbH).
Human blood research was experimented after approval from the Yonsei University Institutional Review Board (IRB) in accordance with the Life Ethics and Safety Act.
Blood samples for NATEM were kept at room temperature, and all NATEM analyses were performed at 37° C. NATEM was carried out using 300 μL of citrated human blood preincubating with test compounds (100 μM, 2% v/v DMSO) for 15 minutes in cuvette and […] with Star-TEM reagent according to the manufacturer's manual (ROTEM; Tem International GmbH, Munich, Germany). After addition of the star-TEM reagent, cuvettes were measured by ROTEM® delta system. Blood clot formation was evaluated.
The obtained parameters were time to clot initiation (Clotting Time, CT), time to clot formation, α angle for clot growth kinetics (initial rate of fibrin polymerization), amplitude (firmness) at 10 minutes, maximum clot firmness, and maximum lysis.

## O=C(N[C@@H]1C[C@H]1c1ccccc1)c1cccc(Nc2ccc(-c3ccncn3)cc2)c1 [Compound 174, N-((1R,2S)-2-phenylcyclopropyl)-3-((4-(pyrimidin-4-yl)phenyl)amino)benzamide]
Human ANO6
  inhibition at 0.1 µM: ≥ 60%
[1]
  Inhibition Level (retardation time, recalcification time): B (the compounds (30 μM) having retardation time of 20 seconds or more to less than 50 seconds)
Citrated human blood
  A10, amplitude (firmness) at 10 minutes: 45 mm
  CFT, clot formation time: 180 s
  CT, clotting time: 665 s
  MCF, maximum clot firmness: 56 mm
  ML, maximum lysis: 2%
  α, α-angle: 57 °

## O=C(N[C@@H]1C[C@H]1c1ccccc1)c1cccc(Nc2ccc(-c3cncnc3)cc2)c1 [Compound 165, N-((1R,2S)-2-phenylcyclopropyl)-3-((4-(pyrimidin-5-yl)phenyl)amino)benzamide]
Human ANO6
  inhibition at 0.1 µM: < 30%
[1]
  Inhibition Level (retardation time, recalcification time): C (compounds (30 μM) having less than 20 seconds of retardation time)

## O=C(Nc1cccc(F)c1)c1cccc(Nc2ccc(-c3cncnc3)cc2)c1 [Compound 164, N-(3-fluorophenyl)-3-((4-(pyrimidin-5-yl)phenyl)amino)benzamide]
Human ANO6
  inhibition at 0.1 µM: 30 to 60%
[1]
  Inhibition Level (retardation time, recalcification time): C (compounds (30 μM) having less than 20 seconds of retardation time)

## O=C(Nc1cccc(F)c1)c1cccc(Nc2ccc(-c3ncccn3)cc2)c1 [Compound 170, N-(3-fluorophenyl)-3-((4-(pyrimidin-2-yl)phenyl)amino)benzamide]
Human ANO6
  inhibition at 0.1 µM: 30 to 60%
[1]
  Inhibition Level (retardation time, recalcification time): B (the compounds (30 μM) having retardation time of 20 seconds or more to less than 50 seconds)

## O=C(N[C@@H]1C[C@H]1c1ccccc1)c1cccc(Nc2ccc(-c3ccccn3)cc2)c1 [Compound 155, N-((1R,2S)-2-phenylcyclopropyl)-3-((4-(pyridin-2-yl)phenyl)amino)benzamide]
Human ANO6
  inhibition at 0.1 µM: ≥ 60%
  inhibition at 1 µM: ≥ 60%
[1]
  Inhibition Level (retardation time, recalcification time): A (the compounds (30 μM) having retardation time of 50 seconds or more)
Citrated human blood
  A10, amplitude (firmness) at 10 minutes: 45 mm
  CFT, clot formation time: 168 s
  CT, clotting time: 616 s
  MCF, maximum clot firmness: 57 mm
  ML, maximum lysis: 2%
  α, α-angle: 59 °

## O=C(NCCC12CC3CC(CC(C3)C1)C2)c1cccc(Nc2ccc(-c3cccc(F)c3)cn2)c1 [Compound 142, N-(2-(adamantan-1-yl)ethyl)-3-((5-(3-fluorophenyl)pyridin-2-yl)amino)benzamide]
Human ANO6
  inhibition at 0.1 µM: ≥ 60%
  inhibition at 1 µM: ≥ 60%
[1]
  Inhibition Level (retardation time, recalcification time): A (the compounds (30 μM) having retardation time of 50 seconds or more)

## O=C(Nc1cccc([N+](=O)[O-])c1)c1cccc(Nc2ccc(-c3cccc(F)c3)cn2)c1 [Compound 141, 3-((5-(3-fluorophenyl)pyridin-2-yl)amino)-N-(3-nitrophenyl)benzamide]
Human ANO6
  inhibition at 0.1 µM: ≥ 60%
  inhibition at 1 µM: ≥ 60%
[1]
  Inhibition Level (retardation time, recalcification time): A (the compounds (30 μM) having retardation time of 50 seconds or more)

## O=C(N[C@@H]1C[C@H]1c1ccccc1)c1cccc(Nc2ccc(-c3ncccn3)cc2)c1 [Compound 171, N-((1R,2S)-2-phenylcyclopropyl)-3-((4-(pyrimidin-2-yl)phenyl)amino)benzamide]
Human ANO6
  inhibition at 0.1 µM: < 30%
[1]
  Inhibition Level (retardation time, recalcification time): C (compounds (30 μM) having less than 20 seconds of retardation time)

## O=C(Nc1cccc(F)c1)c1cccc(Nc2ccc(-c3ccncn3)cc2)c1 [Compound 175, N-(3-fluorophenyl)-3-((4-(pyrimidin-4-yl)phenyl)amino)benzamide]
Human ANO6
  inhibition at 0.1 µM: ≥ 60%
[1]
  Inhibition Level (retardation time, recalcification time): B (the compounds (30 μM) having retardation time of 20 seconds or more to less than 50 seconds)

## O=C(Nc1cccc(F)c1)c1cccc(Nc2ccc(-c3ccccn3)cc2)c1 [Compound 154, N-(3-fluorophenyl)-3-((4-(pyridin-2-yl)phenyl)amino)benzamide]
Human ANO6
  inhibition at 0.1 µM: ≥ 60%
  inhibition at 1 µM: ≥ 60%
[1]
  Inhibition Level (retardation time, recalcification time): A (the compounds (30 μM) having retardation time of 50 seconds or more)
